# Measurements taken from patent US20250179059A1 (The Regents of the University of California, priority 2021, published 2025).
# Like-named read-outs stand apart in the source and are kept apart here.
# Tests used:
# [1] = test system: human SKM-1 acute myeloid leukemia cells; assay: SKM-1 antiproliferation cell-based assay (ATPlite); conditions: Homo sapiens
# Method in brief: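 Log-phase cells in RPMI 1640/15% FBS were seeded at 34722 cells/mL and exposed for 4 days to nine-concentration DMSO serial dilutions in triplicate. Viability was read as ATP luminescence (ATPlite 1step), and IC50 values came from variable-slope non-linear regression.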
# [2] = target: T1, human BRD4 bromodomain II (Homo sapiens, UniProt O60885); assay: Bromodomain binding assay (AlphaScreen), BRD4 BDII
# T1 construct: human BRD4 bromodomain II [based on Genbank NM_058243, residues 349-460]; host or cells: E. coli
# Method in brief: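 Inhibition of acetyl-H4 peptide binding to human BRD4 bromodomains is measured by bead-based proximity (AlphaScreen) in pH 7.5 HEPES buffer containing 0.05% CHAPS and 0.1% BSA. Ten compound concentrations in 3-fold steps give competitive binding IC50s.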
# [3] = SKM-1, 96 h, SKM-1 antiproliferation assay, 4 days, Table C2
# [4] = AlphaScreen assay, Table C2, read-out: BRD4 BDII IC50
# [5] = SKM-1, SKM-1 antiproliferation assay
# [6] = BRD4 BDII AlphaScreen assay, read-out: BRD4 BD2 IC50
"GI50 [1, 3] [nM]","IC50 [2, 4] [nM]","GI50 [1, 5] [nM]","IC50 [2, 6] [nM]",SMILES
0.3 to 30,0.01 to 1,–,–,"Cc1ncc(-c2cc(F)cc(-c3ccc(-n4ccn(C)c4=O)c(Cl)c3)c2O)cc1N1CC(O)(CO)C1 [Example 839, 1-(3-chloro-5′-fluoro-2′-hydroxy-3′-(5-(3-hydroxy-3-(hydroxymethyl)azetidin-1-yl)-6-methylpyridin-3-yl)-[1,1′-biphenyl]-4-yl)-3-methyl-1H-imidazol-2(3H)-one]"
30 to 300,1 to 10,–,–,"CN1CCN(c2ccc(-c3cccc(-c4ccc(C#N)c(N5CCNCC5)c4)c3O)cc2Cl)C1=O [Example 308, 3″-chloro-2′-hydroxy-4″-(3-methyl-2-oxoimidazolidin-1-y1)-3-(piperazin-1-yl)-[1,1′:3′,1″-terphenyl]-4-carbonitrile]"
300 to 3000,10 to 100,–,–,"CC(=O)Nc1ccc(-c2cccc(-c3ccc(C(F)(F)F)c(N4CCNCC4)c3)c2O)cc1F [Example 336, N-(3-fluoro-2′-hydroxy-3″-(piperazin-1-yl)-4″-(trifluoromethyl)-[1,1′:3′,1″-terphenyl]-4-yl)acetamide acetate]"
0.3 to 30,0.01 to 1,–,–,"CC(=O)N[C@]1(C)CCN(c2cncc(-c3cc(F)cc(-c4ccc(-n5ccn(C)c5=O)c(Cl)c4)c3O)c2)C1 [Example 793, (R)-N-(1-(5-(3′-chloro-5-fluoro-2-hydroxy-4′-(3-methyl-2-oxo-2,3-dihydro-1H-imidazol-1-yl)-[1,1′-biphenyl]-3-yl)pyridin-3-yl)-3-methylpyrrolidin-3-yl)acetamide]"
30 to 300,1 to 10,–,–,"CN1CCN(c2ccc(-c3cccc(-c4cncc(N5CCCC(N)C5)c4)c3O)cc2Cl)C1=O (stereo not shown) [Example 325, 1-(3′-(5-(3-aminopiperidin-1-yl)pyridin-3-yl)-3-chloro-2′-hydroxy-[1,1′-biphenyl]-4-yl)-3-methylimidazolidin-2-one]"
–,–,30 to 300,1 to 10,"CC(C)(C)N1CCN(c2cccc(-c3cc(F)cc(-c4ccc(-n5cc[nH]c5=O)c(Cl)c4)c3O)c2)CC1 [Example 928, 1-(3″-(4-(tert-butyl)piperazin-1-yl)-3-chloro-5′-fluoro-2′-hydroxy-[1,1′:3′,1″-terphenyl]-4-yl)-1H-imidazol-2(3H)-one]"
0.3 to 30,0.01 to 1,–,–,"Cn1ccn(-c2ccc(-c3cc(F)cc(-c4cccc(N5CCN(C(C)(C)C)CC5)c4)c3O)cc2Cl)c1=O [Example 734, 1-(3″-(4-(tert-butyl)piperazin-1-yl)-3-chloro-5′-fluoro-2′-hydroxy-[1,1′:3′,1″-terphenyl]-4-yl)-3-methyl-1H-imidazol-2(3H)-one]"
0.3 to 30,0.01 to 1,–,–,"CC[C@@H]1CN(c2cc(-c3cc(F)cc(-c4ccc(-n5ccn(C)c5=O)c(Cl)c4)c3O)cc3[nH]ncc23)CCN1 [Example 594, (R)-1-(3-chloro-3′-(4-(3-ethylpiperazin-1-yl)-1H-indazol-6-yl)-5′-fluoro-2′-hydroxy-[1,1′-biphenyl]-4-yl)-3-methyl-1H-imidazol-2(3H)-one]"
0.3 to 30,0.01 to 1,–,–,"Cn1ccn(-c2ccc(-c3cc(F)cc(-c4cc(N5CCN(C(C)(C)C)CC5)n(C)c(=O)c4)c3O)cc2Cl)c1=O [Example 735, 6-(4-(tert-butyl)piperazin-1-yl)-4-(3′-chloro-5-fluoro-2-hydroxy-4′-(3-methyl-2-oxo-2,3-dihydro-1H-imidazol-1-yl)-[1,1′-biphenyl]-3-yl)-1-methylpyridin-2(1H)-one]"
30 to 300,1 to 10,–,–,"Cn1ccn(-c2ccc(-c3cc(F)cc(-c4ccnc(N5CCC[C@@H](O)C5)c4)c3O)cc2Cl)c1=O [Example 622, (R)-1-(3-chloro-5′-fluoro-2′-hydroxy-3′-(2-(3-hydroxypiperidin-1-yl)pyridin-4-yl)-[1,1′-biphenyl]-4-yl)-3-methyl-1H-imidazol-2(3H)-one]"
300 to 3000,10 to 100,–,–,"O=C1CCCN1c1ccc(-c2cc(F)cc(-c3ccnc(N4CC5(CNC5)C4)c3)c2O)cc1F [Example 285, 1-(3′-(2-(2,6-diazaspiro[3.3]heptan-2-yl)pyridin-4-yl)-3,5′-difluoro-2′-hydroxy-[1,1′-biphenyl]-4-yl)pyrrolidin-2-one]"
0.3 to 30,0.01 to 1,–,–,"Cn1ccn(-c2ccc(-c3cc(F)cc(-c4ccnc(N5CCC[C@H](N)C5)c4)c3O)cc2Cl)c1=O [Example 411, (S)-1-(3′-(2-(3-aminopiperidin-1-yl)pyridin-4-yl)-3-chloro-5′-fluoro-2′-hydroxy-[1,1′-biphenyl]-4-yl)-3-methyl-1H-imidazol-2(3H)-one]"
300 to 3000,10 to 100,–,–,"CC(=O)Nc1ccc(-c2cccc(-c3cc(N4CCNCC4)nc4[nH]ccc34)c2O)cc1F [Example 286, N-(3-fluoro-2′-hydroxy-3′-(6-(piperazin-1-yl)-1H-pyrrolo[2,3-b]pyridin-4-yl)-[1,1′-biphenyl]-4-yl)acetamide]"
0.3 to 30,0.01 to 1,–,–,"Cc1cc(-c2cc(F)cc(-c3ccc(-n4ccn(C)c4=O)c(Cl)c3)c2O)cc(N2CCN(C(C)(C)C)CC2)c1 [Example 828, 1-(3″-(4-(tert-butyl)piperazin-1-yl)-3-chloro-5′-fluoro-2′-hydroxy-5″-methyl-[1,1′:3′,1″-terphenyl]-4-yl)-3-methyl-1H-imidazol-2(3H)-one]"
30 to 300,1 to 10,–,–,"CC(=O)Nc1ccc(-c2cccc(-c3ccnc(N4CC[C@@H](N)C4)c3)c2O)cc1F [Example 261, (R)-N-(3′-(2-(3-aminopyrrolidin-1-yl)pyridin-4-yl)-3-fluoro-2′-hydroxy-[1,1′-biphenyl]-4-yl)acetamide]"
0.3 to 30,1 to 10,–,–,"Cn1ccn(-c2ccc(-c3cc(F)cc(-c4cncc(N5CC[C@H](N)C5)c4)c3O)cc2Cl)c1=O [Example 484, (S)-1-(3′-(5-(3-aminopyrrolidin-1-yl)pyridin-3-yl)-3-chloro-5′-fluoro-2′-hydroxy-[1,1′-biphenyl]-4-yl)-3-methyl-1H-imidazol-2(3H)-one]"
300 to 3000,10 to 100,–,–,"CN1CCN(c2ccc(-c3cc(F)cc(-c4ccnc(NCCN)c4)c3O)cc2Cl)C1=O [Example 363, 1-(3′-(2-((2-aminoethyl)amino)pyridin-4-yl)-3-chloro-5′-fluoro-2′-hydroxy-[1,1′-biphenyl]-4-yl)-3-methylimidazolidin-2-one]"
0.3 to 30,0.01 to 1,–,–,"C[C@@H]1CN(c2cccc(-c3cc(F)cc(-c4ccc(-n5ccn(C)c5=O)c(Cl)c4)c3O)c2)CCN1 [Example 671, (R)-1-(3-chloro-5′-fluoro-2′-hydroxy-3″-(3-methylpiperazin-1-yl)-[1,1′:3′,1″-terphenyl]-4-yl)-3-methyl-1H-imidazol-2(3H)-one]"
0.3 to 30,0.01 to 1,–,–,"Cc1ncc(-c2cc(F)cc(-c3ccc(-n4ccn(C)c4=O)c(Cl)c3)c2O)cc1N1CC[C@@](C)(O)C1 [Example 825, (R)-1-(3-chloro-5′-fluoro-2′-hydroxy-3′-(5-(3-hydroxy-3-methylpyrrolidin-1-yl)-6-methylpyridin-3-yl)-[1,1′-biphenyl]-4-yl)-3-methyl-1H-imidazol-2(3H)-one]"
–,–,0.3 to 30,1 to 10,CC(C)N1CCC12CCN(c1cccc(-c3cc(F)cc(-c4ccc(-n5ccn(C)c5=O)c(Cl)c4)c3O)c1)C2 (stereo not shown) [Example 892]
30 to 300,1 to 10,–,–,"CC(=O)NCc1ncc(-c2cc(F)cc(-c3ccc(N4CCN(C)C4=O)c(Cl)c3)c2O)cc1N1CCNCC1 [Example 370, N-((5-(3′-chloro-5-fluoro-2-hydroxy-4′-(3-methyl-2-oxoimidazolidin-1-yl)-[1,1′-biphenyl]-3-yl)-3-(piperazin-1-yl)pyridin-2-yl)methyl)acetamide]"
0.3 to 30,0.01 to 1,–,–,"CN[C@H]1CCN(c2cncc(-c3cc(F)cc(-c4ccc(-n5ccn(C)c5=O)c(Cl)c4)c3O)c2)C1 [Example 476, (S)-1-(3-chloro-5′-fluoro-2′-hydroxy-3′-(5-(3-(methylamino)pyrrolidin-1-yl)pyridin-3-yl)-[1,1′-biphenyl]-4-yl)-3-methyl-1H-imidazol-2(3H)-one]"
–,–,0.3 to 30,1 to 10,"COc1cc(-c2ccc(-n3ccn(C)c3=O)c(Cl)c2)c(O)c(-c2cccc(N3CCN(C(C)(C)C)CC3)c2)n1 [Example 1028, 1-(4-(2-(3-(4-(tert-Butyl)piperazin-1-yl)phenyl)-3-hydroxy-6-methoxypyridin-4-yl)-2-chlorophenyl)-3-methyl-1H-imidazol-2(3H)-one]"
300 to 3000,1 to 10,–,–,"CC(=O)Nc1ccc(-c2cccc(-c3ccnc(N4CCC(CO)C4)c3)c2O)cc1F (stereo not shown) [Example 230, N-(3-fluoro-2′-hydroxy-3′-(2-(3-(hydroxymethyl)pyrrolidin-1-yl)pyridin-4-yl)-[1,1′-biphenyl]-4-yl)acetamide]"
0.3 to 30,1 to 10,–,–,"CSc1ncc(-c2cc(F)cc(-c3ccc(-n4ccn(C)c4=O)c(Cl)c3)c2O)cc1N1CCN(C(C)(C)C)CC1 [Example 821, 1-(3′-(5-(4-(tert-butyl)piperazin-1-yl)-6-(methylthio)pyridin-3-yl)-3-chloro-5′-fluoro-2′-hydroxy-[1,1′-biphenyl]-4-yl)-3-methyl-1H-imidazol-2(3H)-one]"

SMILES,"GI50 [1, 3] [nM]","IC50 [2, 4] [nM]","GI50 [1, 5] [nM]","IC50 [2, 6] [nM]"
"COc1ncc(-c2cc(F)cc(-c3ccc(-n4ccn(C)c4=O)c(Cl)c3)c2O)cc1N1CC2CCC(C1)N2C(C)C [Example 836, 1-(3-chloro-5′-fluoro-2′-hydroxy-3′-(5-(8-isopropyl-3,8-diazabicyclo[3.2.1]octan-3-yl)-6-methoxypyridin-3-yl)-[1,1′-biphenyl]-4-yl)-3-methyl-1H-imidazol-2(3H)-one]",0.3 to 30,1 to 10,–,–
